Species on record: Rattus norvegicus
Assay: DrugMatrix - Regimen: Daily Repeat
Format: toxicity, organism-based, Sprague-Dawley
Parameters: regimen Daily Repeat, gender Male, age 6-8 weeks
Settings: in vivo, po, route oral GAVAGE, vehicle 100 % WATER; for ABSOLUTE BASOPHIL / ABSOLUTE EOSINOPHIL / ABSOLUTE LYMPHOCYTE / ABSOLUTE MONOCYTE / ABSOLUTE SEGMENTED NEUTROPHIL / BASOPHIL / EOSINOPHIL / ERYTHROCYTE COUNT / HEMATOCRIT / HEMOGLOBIN / LEUKOCYTE COUNT / LYMPHOCYTE / MEAN CORPUSCULAR HEMOGLOBIN / MEAN CORPUSCULAR HEMOGLOBIN CONCENTRATION / MEAN CORPUSCULAR VOLUME / MONOCYTE / NEUTROPHIL / NUCLEATED RED BLOOD CELLS / PLATELET COUNT: tissue Blood; for ALANINE AMINOTRANSFERASE / ALBUMIN / ALKALINE PHOSPHATASE / ASPARTATE AMINOTRANSFERASE / BLOOD UREA NITROGEN / CARBON DIOXIDE / CHLORIDE / CHOLESTEROL / CREATINE PHOSPHOKINASE / CREATININE / GLUCOSE / LACTATE DEHYDROGENASE / LIPASE / PHOSPHORUS / POTASSIUM / SODIUM / TOTAL BILIRUBIN / TOTAL PROTEIN / URIC ACID: tissue Plasma
[1] = 120 mg/kg, 120 h, dose level Low, time 5 day
[2] = 1200 mg/kg, 72 h, dose level High, time 3 day
[3] = 1200 mg/kg, 120 h, dose level High, time 5 day

Compound: Cc1onc(-c2ccccc2Cl)c1C(=O)N[C@@H]1C(=O)N2[C@@H]1SC(C)(C)[C@@H]2C(=O)O [CLOXACILLIN]
- ABSOLUTE BASOPHIL [1]: 0 CELLS/uL
- ABSOLUTE EOSINOPHIL [1]: 0 CELLS/uL
- ABSOLUTE LYMPHOCYTE [1]: 14591.67 CELLS/uL
- ABSOLUTE MONOCYTE [1]: 338 CELLS/uL
- ABSOLUTE SEGMENTED NEUTROPHIL [1]: 1970.33 CELLS/uL
- BASOPHIL [1]: 0%
- EOSINOPHIL [1]: 0%
- ERYTHROCYTE COUNT [1]: 5.42 x10E6/uL
- HEMATOCRIT [1]: 34.13%
- HEMOGLOBIN [1]: 13.57 G/DL
- LEUKOCYTE COUNT [1]: 16.9 x10E3/uL
- LYMPHOCYTE [1]: 86.33%
- MEAN CORPUSCULAR HEMOGLOBIN [1]: 25.07 pg
- MEAN CORPUSCULAR HEMOGLOBIN CONCENTRATION [1]: 39.73 G/DL
- MEAN CORPUSCULAR VOLUME [1]: 62.97 fL
- MONOCYTE [1]: 2%
- NEUTROPHIL [1]: 11.67%
- NUCLEATED RED BLOOD CELLS [1]: 0 /100WBC
- PLATELET COUNT [1]: 1237.33 x10E3/uL
- ALANINE AMINOTRANSFERASE [1]: 51.33 u/L
- ALBUMIN [1]: 4.13 G/DL
- ALKALINE PHOSPHATASE [1]: 349.67 u/L
- ASPARTATE AMINOTRANSFERASE [1]: 77.33 u/L
- BLOOD UREA NITROGEN [1]: 15.67 mg/dL
- CARBON DIOXIDE [1]: 27 mmol/L
- CHLORIDE [1]: 101.33 MEQ/L
- CHOLESTEROL [1]: 69.67 mg/dL
- CREATINE PHOSPHOKINASE [1]: 381.33 u/L
- CREATININE [1]: 0.14 mg/dL
- GLUCOSE [1]: 149.67 mg/dL
- LACTATE DEHYDROGENASE [1]: 190 u/L
- LIPASE [1]: 8.33 u/L
- PHOSPHORUS [1]: 11.87 mg/dL
- POTASSIUM [1]: 6.69 MEQ/L
- SODIUM [1]: 143.53 MEQ/L
- TOTAL BILIRUBIN [1]: 0.13 mg/dL
- TOTAL PROTEIN [1]: 5.77 G/DL
- URIC ACID [1]: 1.5 mg/dL
- ABSOLUTE BASOPHIL [2]: 0 CELLS/uL
- ABSOLUTE EOSINOPHIL [2]: 0 CELLS/uL
- ABSOLUTE LYMPHOCYTE [2]: 9313 CELLS/uL
- ABSOLUTE MONOCYTE [2]: 140.33 CELLS/uL
- ABSOLUTE SEGMENTED NEUTROPHIL [2]: 1013.33 CELLS/uL
- BASOPHIL [2]: 0%
- EOSINOPHIL [2]: 0%
- ERYTHROCYTE COUNT [2]: 4.48 x10E6/uL
- HEMATOCRIT [2]: 28.27%
- HEMOGLOBIN [2]: 11.27 G/DL
- LEUKOCYTE COUNT [2]: 10.47 x10E3/uL
- LYMPHOCYTE [2]: 90%
- MEAN CORPUSCULAR HEMOGLOBIN [2]: 25.37 pg
- MEAN CORPUSCULAR HEMOGLOBIN CONCENTRATION [2]: 39.93 G/DL
- MEAN CORPUSCULAR VOLUME [2]: 63.4 fL
- MONOCYTE [2]: 1%
- NEUTROPHIL [2]: 9%
- NUCLEATED RED BLOOD CELLS [2]: 0 /100WBC
- PLATELET COUNT [2]: 825.33 x10E3/uL
- ALANINE AMINOTRANSFERASE [2]: 72 u/L
- ALBUMIN [2]: 4.03 G/DL
- ALKALINE PHOSPHATASE [2]: 414 u/L
- ASPARTATE AMINOTRANSFERASE [2]: 89.67 u/L
- BLOOD UREA NITROGEN [2]: 15 mg/dL
- CARBON DIOXIDE [2]: 22.33 mmol/L
- CHLORIDE [2]: 102.67 MEQ/L
- CHOLESTEROL [2]: 86.33 mg/dL
- CREATINE PHOSPHOKINASE [2]: 306 u/L
- CREATININE [2]: 0.16 mg/dL
- GLUCOSE [2]: 144.67 mg/dL
- LACTATE DEHYDROGENASE [2]: 170 u/L
- LIPASE [2]: 10.67 u/L
- PHOSPHORUS [2]: 12.23 mg/dL
- POTASSIUM [2]: 6.82 MEQ/L
- SODIUM [2]: 143.7 MEQ/L
- TOTAL BILIRUBIN [2]: 0.13 mg/dL
- TOTAL PROTEIN [2]: 5.7 G/DL
- URIC ACID [2]: 1.7 mg/dL
- ABSOLUTE BASOPHIL [3]: 0 CELLS/uL
- ABSOLUTE EOSINOPHIL [3]: 148.67 CELLS/uL
- ABSOLUTE LYMPHOCYTE [3]: 18945 CELLS/uL
- ABSOLUTE MONOCYTE [3]: 0 CELLS/uL
- ABSOLUTE SEGMENTED NEUTROPHIL [3]: 1139.67 CELLS/uL
- BASOPHIL [3]: 0%
- EOSINOPHIL [3]: 0.67%
- ERYTHROCYTE COUNT [3]: 5.75 x10E6/uL
- HEMATOCRIT [3]: 35.27%
- HEMOGLOBIN [3]: 13.97 G/DL
- LEUKOCYTE COUNT [3]: 20.23 x10E3/uL
- LYMPHOCYTE [3]: 93.67%
- MEAN CORPUSCULAR HEMOGLOBIN [3]: 24.3 pg
- MEAN CORPUSCULAR HEMOGLOBIN CONCENTRATION [3]: 39.6 G/DL
- MEAN CORPUSCULAR VOLUME [3]: 61.33 fL
- MONOCYTE [3]: 0%
- NEUTROPHIL [3]: 5.67%
- NUCLEATED RED BLOOD CELLS [3]: 0 /100WBC
- PLATELET COUNT [3]: 1362 x10E3/uL
- ALANINE AMINOTRANSFERASE [3]: 67 u/L
- ALBUMIN [3]: 4.2 G/DL
- ALKALINE PHOSPHATASE [3]: 356 u/L
- ASPARTATE AMINOTRANSFERASE [3]: 78 u/L
- BLOOD UREA NITROGEN [3]: 17.67 mg/dL
- CARBON DIOXIDE [3]: 26 mmol/L
- CHLORIDE [3]: 102.67 MEQ/L
- CHOLESTEROL [3]: 75.33 mg/dL
- CREATINE PHOSPHOKINASE [3]: 220.67 u/L
- CREATININE [3]: 0.15 mg/dL
- GLUCOSE [3]: 159.67 mg/dL
- LACTATE DEHYDROGENASE [3]: 104 u/L
- LIPASE [3]: 9.33 u/L
- PHOSPHORUS [3]: 11.63 mg/dL
- POTASSIUM [3]: 6.63 MEQ/L
- SODIUM [3]: 144.07 MEQ/L
- TOTAL BILIRUBIN [3]: 0.13 mg/dL
- TOTAL PROTEIN [3]: 6.17 G/DL
- URIC ACID [3]: 2 mg/dL
